≈ marks a conversion by molar mass, not a printed value.
Key:
Candida albicans = experiment: Liquid broth minimum inhibitory concentration; format: cell-based; conditions: YPD media, 30° C., OD600 at 14 h, 1% DMSO, read-out: MIC against Candida albicans
Method: (§1) Determination of minimum inhibitory concentration: Fresh DMSO solutions of selvarmicin and nystatin were prepared as serial dilutions and dispensed into clear flat-bottom 96-well plates in four replicates. A starting inoculum of the appropriate test strain in media was added to each well to yield a final concentration of 1% DMSO by volume. The plates were incubated at 30° C. with shaking at 200 rpm. Growth was assayed by OD600 readings taken on a M5 plate reader (Molecular Devices). For E. coli, B. subtilis, and M. luteus, the starting inoculum consisted of an overnight culture in LB diluted into LB media at 10 μL/mL and final OD readings were taken at 22 h. For C. albicans and S. cerevisiae, the starting inoculum consisted of an overnight culture in YPD media diluted to an OD600 of 0.05 in YPD media and final OD readings were taken at 14 h. For T. harzianum and A. fumigatus, the starting inoculum consisted of a stock of concentrated conidia diluted into potato dextrose broth at 2 uL/mL and final OD readings were taken at 22 h. Using Prism (GraphPad), the OD data were normalized and fit to a Gompertz function, from which MIC values were extracted.
(§2) Selvamicin's improved solubility, despite its lack of charged carboxylate and ammonium groups, is probably contributed by its second sugar moiety.

Solubility determination = format: physicochemical; conditions: HEPES buffer, aqueous buffer, thermodynamic from solid; 5 mM HEPES pH 7.4, 22° C., UV-vis absorbance
Method: Solubility determination: Solubility for selvamicin and nystatin was measured with minor modifications from a previously reported protocol. 1 Briefly, in microcentrifuge tubes, 20 μL […] HEPES (pH=7.4) was added to 2.5 mg of selvamicin and of nystatin and the resulting suspensions were vortexed vigorously for 30 min at 22° C. The tubes were centrifuged, the resulting supernatants were diluted in HEPES buffer, and concentrations were determined by UV-vis absorbance (306 nm for nystatin and 335 nm for selvamicin).

B. subtilis = experiment: Liquid broth activity testing against bacteria; format: cell-based; conditions: LB media, OD at 22 h
Method: as §1, §2

E. coli = experiment: Liquid broth activity testing against bacteria; format: cell-based; conditions: LB media, OD at 22 h
Method: as §1, §2

M. luteus = experiment: Liquid broth activity testing against bacteria; format: cell-based; conditions: LB media, OD at 22 h
Method: as §1, §2

[1] = Isothermal calorimetry sterol binding assay; conditions: 150 μM polyene, POPC LUVs with 11 mol % ergosterol, 25° C.
Method: Isothermal Calorimetry Sterol Binding Assay:
Large unilamellar vesicle (LUV) preparation: In a glass vial, a 25 mg/mL solution of palmitoyl oleoyl phosphatidylcholine (POPC) in chloroform (0.96 mL, Avanti Polar Lipids) was mixed with a freshly prepared 4 mg/mL solution of the appropriate sterol (ergosterol or cholesterol. Aldrich) in chloroform (0.35 mL). The sterol solution was omitted for preparation of sterol-free POPC LUVs. The resulting solution was evaporated to dryness in vacuo to yield a lipid film, which was placed under high vacuum for at least 5 h. To this film was added 1 mL 5 mM HEPES (pH adjusted to 7.4 with KOH) and the resulting suspension was vortexed for 3 min. This lipid suspension was loaded into a syringe and passed through a 0.1 μM filter (Whatman) 21 times using an Avanti Polar Lipids Mini-Extruder to yield an LUN suspension (32 mM POPC, 11 mol % sterol; assumed no loss during extrusion).
Isothermal calorimetry (ITC) experiments: Solutions of polyene (150 μM selvamicin or nystatin) in 1% DMSO/5 mM HEPES (pH=7.4) were prepared by dilution from a 1.5 mM solution in DMSO. 8 mM POPC LUV suspensions in 1% DMSO/5 mM HEPES (pH=7.4) were prepared by dilution of the above LUV suspensions with HEPES buffer and DMSO. […]

Candida albicans K1 = experiment: Neutropenic mouse disseminated candidiasis model (Example 8); format: in vivo; conditions: 80 mg/kg single intraperitoneal dose 2 h after infection, read 8 h after therapy
Method: (§3) Selvamicin was tested in the neutropenic mouse disseminated candidiasis model. Briefly, mice were infected with an inoculum of 5.70 log 10 cfu/ml of Candida albicans K1. Two hours after infection, the mice were administered either saline or selvamicin at 80 mg/kg via the intraperitoneal route. Eight hours after therapy, the burden of Candida albicans in mouse kidneys was measured by viable plate counts of organ homogenates.

[2] = Animal toxicity in neutropenic mouse disseminated candidiasis model (Example 8); format: in vivo; conditions: 80 mg/kg intraperitoneal, neutropenic mice
Method: as §3

C. albicans = experiment: Neutropenic mouse disseminated candidiasis model (Example 9); format: in vivo; conditions: 20 mg/kg or 80 mg/kg intraperitoneal
Method: (§4) Selvamicin was tested in the neutropenic mouse disseminated candidiasis model. Mice were infected with an inoculum of C. albicans, C. glabrata, and C. auris. After infection, the mice were administered either saline or selvaimicin at 20 mg/kg or 80 mg/kg via an intraperitoneal route. After therapy, the burden of Candida albicans in mouse kidneys was measured by viable plate counts of organ homogenates.

C. auris = experiment: as above; format: in vivo; conditions: 20 mg/kg or 80 mg/kg intraperitoneal
Method: as §4

C. glabrata = experiment: as above; format: in vivo; conditions: 20 mg/kg or 80 mg/kg intraperitoneal
Method: as §4

Compound | MIC (Candida albicans) [µM] | solubility at 30 min (Solubility determination) [µM] | Activity against Gram-positive bacteria (B. subtilis) (B. subtilis) | Activity against Gram-negative bacteria (E. coli) (E. coli) | Activity against Gram-positive bacteria (M. luteus) (M. luteus) | Binding to ergosterol-containing vesicles (ITC, heats evolved) [1] | Efficacy: burden of Candida albicans in mouse kidneys (Candida albicans K1) | Animal toxicity [2] | Efficacy in preventing C. albicans growth (kidney burden) (C. albicans) | Efficacy in preventing C. auris growth (kidney burden) (C. auris) | Efficacy in preventing C. glabrata growth (kidney burden) (C. glabrata)
C[C@@H]1[C@H](O)[C@@H](C)/C=C/C=C/CC/C=C/C=C/C=C/C=C/[C@H](O[C@H]2O[C@H](C)[C@@H](O)[C@H](N)[C@@H]2O)C[C@@H]2O[C@](O)(C[C@@H](O)[C@H](O)CC[C@@H](O)C[C@@H](O)C[C@@H](O)CC(=O)O[C@H]1C)C[C@H](O)[C@H]2C(=O)O [nystatin A1, reference compound] | 1 (≈ 0.926 µg/mL) | 300 (≈ 278 µg/mL) |  |  |  |  |  |  |  |  | 
CCC1OC(=O)CC[C@@H](O)[C@H](O)C[C@H](O)C[C@]2(O)C[C@H](O)[C@](C)(O)C(CC(O[C@@H]3O[C@H](C)[C@@H](O)[C@H](O)[C@@H]3O)/C=C/C=C/C=C/C=C/C=C/C(C)C(O[C@H]3C[C@@H](O)[C@@H](OC)[C@H](C)O3)C1C)O2 (stereo partly shown) [Selvamicin] | 23 (≈ 21.4 µg/mL) | 2300 (≈ 2140 µg/mL) | No activity was detected | No activity was detected | No activity was detected | no evidence for binding | demonstrated efficacy in preventing Candida albicans growth | No animal toxicity was apparent | demonstrated efficacy | demonstrated efficacy | demonstrated efficacy
